Measurements: patent publication US7754747B2, “Oxazolo-naphthyl acids” (Wyeth LLC, priority 2004, dated 2010)

What was measured:
[1] = molecular target: human PAI-1 (Homo sapiens, UniProt P05121); test: Assay for determining IC50 of inhibition of PAI-1 (Antibody Assay, active PAI-1 bound to tPA-coated plate); assay type: binding; conditions: pH 7.5 buffer, human PAI-1 50 ng/ml
Method: This assay is based upon the non-SDS dissociable interaction between tPA and active PAI-1. Assay plates are initially coated with human tPA (10 μg/ml). Test compounds of the present invention are dissolved in DMSO at 10 mM, then diluted with physiologic buffer (pH 7.5) to a final concentration of 1-50 μM. Test compounds are incubated with human PAI-1 (50 ng/ml) for 15 minutes at room temperature. The tPA-coated plate is washed with a solution of 0.05% Tween 20 and 0.1% BSA, then the plate is blocked with a solution of 3% BSA. An aliquot of the oxazolo-naphthyl acid/PAI-1 solution is then added to the tPA-coated plate, incubated at room temperature for 1 hour, and washed. Active PAI-1 bound to the plate is assessed by adding an aliquot of a 1:1000 dilution of the 33B8 monoclonal antibody against human PAI-1, and incubating the plate at room temperature for 1 hour (Molecular Innovations, Royal Oak, Mich.). The plate is again washed, and a solution of goat anti-mouse IgG-alkaline phosphatase conjugate is added at a 1:50,000 dilution in goat serum. The plate is incubated 30 minutes at room temperature, washed, and a solution of alkaline phosphatase substrate is added. The plate is incubated 45 minutes at room temperature, and color development is determined at OD405nm. The quantitation of active PAI-1 bound to tPA at varying concentrations of the test compound is used to determine the IC50. Results are analyzed using a logarithmic best-fit equation. The assay sensitivity is 5 ng/ml of human PAI-1 as determined from a standard curve ranging from 0-100 ng/ml.

[2] = molecular target: T1, recombinant human plasminogen activator inhibitor-1 (PAI-1) (Homo sapiens, UniProt P05121); test: Primary Screen for the PAI-1 Inhibition (residual tPA activity, Spectrozyme-tPA chromogenic substrate); assay type: biochemical; conditions: pH 6.6 buffer; for inhibition at 10 µM: 10 μM test compound; for inhibition at 25 µM: 25 μM test compound
T1 construct: purchased Molecular Innovations, Royal Oak, Mich
T1 sequence (P05121 24-402): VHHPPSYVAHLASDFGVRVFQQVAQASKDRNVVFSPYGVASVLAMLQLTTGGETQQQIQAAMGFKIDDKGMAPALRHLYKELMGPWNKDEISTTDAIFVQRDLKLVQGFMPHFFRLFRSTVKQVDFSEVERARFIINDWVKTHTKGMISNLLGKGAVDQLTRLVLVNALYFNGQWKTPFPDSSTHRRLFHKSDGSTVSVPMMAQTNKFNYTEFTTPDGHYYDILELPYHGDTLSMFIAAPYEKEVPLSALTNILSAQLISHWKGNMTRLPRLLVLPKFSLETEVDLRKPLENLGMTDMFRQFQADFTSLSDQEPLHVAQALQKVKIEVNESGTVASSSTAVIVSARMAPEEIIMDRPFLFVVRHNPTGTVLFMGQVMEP
Method: Test compounds are dissolved in DMSO at a final concentration of 10 mM, then diluted 100×in physiologic buffer. The inhibitory assay is initiated by the addition of the test compound (1-100 μM final concentration, maximun DMSO concentration of 0.2%) in a pH 6.6 buffer containing 140 Mn recombinant human plasminogen activator inhibitor-1 (PAI-1; Molecular Innovations, Royal Oak, Mich.). Following a 1 hour incubation at room temperature, 70 Mn of recombinant human tissue plasminogen activator (tPA) is added, and the combination of the test compound, PAI-1 and tPA is incubated for an additional 30 minutes. Following the second incubation, Spectrozyme-tPA (American Diagnostica, Greenwich, Conn.), a chromogenic substrate for tPA, is added and absorbance read at 405 nm at 0 and 60 minutes. Relative PAI-1 inhibition is equal to the residual tPA activity in the presence of the test compound and PAI-1. Control treatments include the complete inhibition of tPA by PAI-1 at the molar ratio employed (2:1), and the absence of any effect of the test compound on tPA alone.

human PAI-1, sequence (P05121 24-402): as above

SMILES	melting point [°C]	IC50 [1] [µM]	inhibition at 10 µM [2] [%]	inhibition at 25 µM [2] [%]
c1ccc(-c2ncc(-c3ccc4cc(OCc5nnn[nH]5)ccc4c3)o2)cc1 [Example 1, 5-({[6-(2-phenyl-1,3-oxazol-5-yl)-2-naphthyl]oxy}methyl)-1H-tetraazole]	239 to 241	68.4	17	65
Cn1cc(-c2ncc(-c3ccc4cc(OCc5nnn[nH]5)ccc4c3)o2)c2ccccc21 [Example 10, 1-methyl-3-{5-[6-(1H-tetrazol-5-ylmethoxy)-2-naphthyl]-1,3-oxazol-2-yl}-1H-indole]	254 to 256		16	35
O=C(O)C(Cc1ccccc1)Oc1ccc2cc(-c3cnc(Cc4ccccc4)o3)ccc2c1 (centres unmarked) [Example 11, 2-{[6-(2-benzyl-1,3-oxazol-5-yl)-2-naphthyl]oxy}-3-phenylpropanoic acid]	78 to 82		18	31
CCCCc1oc2ccccc2c1-c1ncc(-c2ccc3cc(OC(Cc4ccccc4)C(=O)O)ccc3c2)o1 (centres unmarked) [Example 3, 2-({6-[2-(2-butyl-1-benzofuran-3-yl)-1,3-oxazol-5-yl]-2-naphthyl}oxy)-3-phenylpropanoic acid]	174 to 177	26.6	32	66
O=C(O)COc1ccc2cc(-c3cnc(-c4cn(Cc5ccccc5)c5ccccc45)o3)ccc2c1 [Example 6, ({6-[2-(1-benzyl-1H-indol-3-yl)-1,3-oxazol-5-yl]-2-naphthyl}oxy)acetic acid]	238 to 242		4	28
Cn1cc(-c2ncc(-c3ccc4cc(OCC(=O)O)ccc4c3)o2)c2ccccc21 [Example 9, ({6-[2-(1-Methyl-1H-indol-3-yl)-1,3-oxazol-5-yl]-2-naphthyl}oxy)acetic acid]	269 to 272		3	24
Cn1cc(-c2ncc(-c3ccc4cc(OC(Cc5ccccc5)C(=O)O)ccc4c3)o2)c2ccccc21 (centres unmarked) [Example 8, 2-({6-[2-(1-methyl-1H-indol-3-yl)-1,3-oxazol-5-yl]-2-naphthyl}oxy)-3-phenylpropanoic acid]	149 to 151		2	75
c1ccc(Cn2cc(-c3ncc(-c4ccc5cc(OCc6nnn[nH]6)ccc5c4)o3)c3ccccc32)cc1 [Example 7, 1-benzyl-3-{5-[6-(1H-tetrazol-5-ylmethoxy)-2-naphthyl]-1,3-oxazol-2-yl}-1H-indole]	244 to 246		19	61
O=C(O)C(Cc1ccccc1)Oc1ccc2cc(-c3cnc(-c4cn(Cc5ccccc5)c5ccccc45)o3)ccc2c1 (centres unmarked) [Example 5, 2-({6-[2-(1-benzyl-1H-indol-3-yl)-1,3-oxazol-5-yl]-2-naphthyl}oxy)-3-phenylpropanoic acid]	125 to 127	47.4	1	34
CCCCc1oc2ccccc2c1-c1ncc(-c2ccc3cc(OCC(=O)O)ccc3c2)o1 [Example 4, ({6-[2-(2-butyl-1-benzofuran-3-yl)-1,3-oxazol-5-yl]-2-naphthyl}oxy)acetic acid]	214 to 216	22.7	23	46
CCCCc1oc2ccccc2c1-c1ncc(-c2ccc3cc(OCc4nnn[nH]4)ccc3c2)o1 [Example 2, 5-[({6-[2-(2-butyl-1-benzofuran-3-yl)-1,3-oxazol-5-yl]-2-naphthyl}oxy)methyl]-1H-tetraazole]	238 to 240	19.4	12	52

The remaining lines, values ahead:

melting point [°C]	IC50 [1] [µM]	inhibition at 10 µM [2] [%]	inhibition at 25 µM [2] [%]	SMILES
281 to 283		12	23	CCCCc1oc2ccccc2c1-c1ncc(-c2ccc3c(Br)c(OCc4ccc(C(=O)O)cc4)ccc3c2)o1 [Example 19, 4-[({1-bromo-6-[2-(2-butyl-1-benzofuran-3-yl)-1,3-oxazol-5-yl]-2-naphthyl}oxy)methyl]benzoic acid]
227 to 228		11	23	c1ccc(Cc2ncc(-c3ccc4cc(OCc5nnn[nH]5)ccc4c3)o2)cc1 [Example 13, 5-({[6-(2-benzyl-1,3-oxazol-5-yl)-2-naphthyl]oxy}methyl)-1H-tetraazole]
236 to 238		0	26	O=C(O)COc1ccc2cc(-c3cnc(Cc4ccccc4)o3)ccc2c1 [Example 12, {[6-(2-benzyl-1,3-oxazol-5-yl)-2-naphthyl]oxy}acetic acid]
251 to 254		14	20	CCCCc1oc2ccccc2c1-c1ncc(-c2ccc3cc(OCc4ccc(C(=O)O)cc4)ccc3c2)o1 [Example 17, 4-[({6-[2-(2-butyl-1-benzofuran-3-yl)-1,3-oxazol-5-yl]-2-naphthyl}oxy)methyl]benzoic acid]
179 to 182		22	48	c1ccc2cc(Cc3ncc(-c4ccc5cc(OCc6nnn[nH]6)ccc5c4)o3)ccc2c1 [Example 15, 5-[({6-[2-(2-naphthylmethyl)-1,3-oxazol-5-yl]-2-naphthyl}oxy)methyl]-1H-tetrazole]
285 to 287		33	62	CCCCc1oc2ccccc2c1-c1ncc(-c2ccc3cc(OCc4ccc(C(=O)O)cc4C(=O)O)ccc3c2)o1 [Example 18, 4-[({6-[2-(2-butyl-1-benzofuran-3-yl)-1,3-oxazol-5-yl]-2-naphthyl}oxy)methyl]isophthalic acid]
258 to 260		12	17	O=C(O)COc1ccc2cc(-c3cnc(Cc4ccc5ccccc5c4)o3)ccc2c1 [Example 14, ({6-[2-(2-naphthylmethyl)-1,3-oxazol-5-yl]-2-naphthyl}oxy)acetic acid]
235 to 237		11	16	CCCCc1oc2ccccc2c1-c1ncc(-c2ccc3c(Br)c(OCc4nnn[nH]4)ccc3c2)o1 [Example 16, 5-[({1-bromo-6-[2-(2-butyl-1-benzofuran-3-yl)-1,3-oxazol-5-yl]-2-naphthyl}oxy)methyl]-1H-tetrazole]
